Test results as given in PubChem BioAssay AID1549 (Sanford-Burnham Center for Chemical Genomics, 2009).
Active and inactive are the calls of the source. The rule behind the calls is not given here.

Target: Influenza A virus M2 proton channel (A/TW/4845/1999 H1N1)
Assay: M2 proton channel binding, NMR based, influenza A virus H1N1 strain (AID 1549)
Details: NMR binding screen, M2 protein

Q: How did the Kd turn out when `O=c1c(O)cccc2cc(O)c(O)c(O)c12` was run?
A: > 4 mM (inactive)

Q: How did the Kd turn out when `c1csc(-c2nn[nH]n2)c1` was run?
A: > 4 mM (inactive)

Q: `COC(=O)c1c(OC)cc2c(c1C)Oc1c(Cl)c(OC(C)=O)c(Cl)c(C)c1C(=O)O2` was tested. Which Kd did it give?
A: > 4 mM (inactive)

Q: `c1ccc2[nH]c(NCCN3CCOCC3)nc2c1` was tested. Which Kd did it give?
A: > 4 mM (inactive)

Q: Which Kd does the source give for `O=C(O[C@@H]1Cc2c(O)cc(O)cc2O[C@@H]1c1cc(O)c(O)c(O)c1-c1c([C@H]2Oc3cc(O)cc(O)c3C[C@H]2O)cc(O)c(O)c1O)c1cc(O)c(O)c(O)c1` here?
A: > 4 mM (inactive)

Q: For `CN(C)N1C(=O)c2ccccc2C1=O`, which Kd is on record?
A: > 4 mM (inactive)

Q: `O=C(O)CSCC(=O)Nc1cccc(O)c1` was tested. Which Kd did it give?
A: > 4 mM (inactive)

Q: `Nc1cc(=O)[nH]c(=O)n1Cc1ccco1` was tested. Which Kd did it give?
A: > 4 mM (inactive)

Q: How did the Kd turn out when `NCc1ccc(S(=O)(=O)O)cc1` was run?
A: > 4 mM (inactive)

Q: With `Nc1ccc(CN2CCOCC2)cc1` as the compound, how does the Kd read?
A: > 4 mM (inactive)

Q: `O=C1CN(C(=O)c2ccccc2F)c2ccccc2N1` was tested. Which Kd did it give?
A: > 4 mM (inactive)

Q: With `CC[C@@]1(O)C(=O)OCc2c1cc1n(c2=O)Cc2cc3ccccc3nc2-1` as the compound, how does the Kd read?
A: > 4 mM (inactive)

Q: With `Cn1cnc2c(=S)[nH]c(=O)n(Cc3ccccc3)c21` as the compound, how does the Kd read?
A: > 4 mM (inactive)

Q: `O/N=C1/CCCc2nonc21` was tested. Which Kd did it give?
A: > 4 mM (inactive)

Q: With `O=C(CSc1ccc(Cl)cc1)N1CCOCC1` as the compound, how does the Kd read?
A: > 4 mM (inactive)

Q: Which Kd does the source give for `CC(=O)O[C@H]1CC[C@]2(C)C3CC[C@@]4(C)C(CC5O[C@@]6(CCC(C)CO6)[C@@H](C)C54)C3CC[C@@H]2C1` (stereo not given in full) here?
A: > 4 mM (inactive)

Q: Which Kd does the source give for `CC(=O)O[C@@H]1CC2C(C)(C)[C@H](O)CC[C@]2(C)C2CC[C@@]3(C)[C@H](c4ccoc4)OC(=O)C4OC43[C@@]21C` (stereo not given in full) here?
A: > 4 mM (inactive)

Q: `NC(=O)COc1ccccc1O` was tested. Which Kd did it give?
A: > 4 mM (inactive)

Q: Which Kd does the source give for `Cc1c(C(=O)N2CCOCC2)oc2c1C(=O)CC(C)(C)C2` here?
A: > 4 mM (inactive)

Q: Which Kd does the source give for `O=C1C[C@@H](c2ccccc2)Oc2cc(O)cc(O)c21` here?
A: > 4 mM (inactive)

Q: Which Kd does the source give for `CC1=C(C(N)=O)C(c2cccs2)C(C(N)=O)=C(C)N1` here?
A: > 4 mM (inactive)

Q: How did the Kd turn out when `CC(=O)O[C@H]1C(=O)[C@@]2(C)C([C@H](OC(=O)c3ccccc3)[C@]3(O)C[C@H](OC(=O)[C@H](O)[C@@H](NC(=O)c4ccccc4)c4ccccc4)C(C)=C1C3(C)C)[C@]1(OC(C)=O)CO[C@@H]1C[C@@H]2O` (stereo not given in full) was run?
A: > 4 mM (inactive)

Q: Which Kd does the source give for `CC(C)=NNC(=O)c1ccccc1` here?
A: > 4 mM (inactive)

Q: For `Nc1nc(-c2ccncc2)cs1`, which Kd is on record?
A: > 4 mM (inactive)

Q: `O=C(NCCCO)c1ccncc1` was tested. Which Kd did it give?
A: > 4 mM (inactive)

Q: Which Kd does the source give for `COC(=O)[C@@H]1C(O)CC[C@H]2CN3CCc4c([nH]c5ccccc45)[C@@H]3C[C@@H]21` (stereo not given in full) here?
A: > 4 mM (inactive)

Q: How did the Kd turn out when `O=C(c1ccccc1)c1ccccc1C(=O)N1CCCC1` was run?
A: > 4 mM (inactive)

Q: With `Cc1cc(=O)n2[nH]c(C)cc2n1` as the compound, how does the Kd read?
A: > 4 mM (inactive)

Q: For `CC(=O)O[C@H]1C[C@@H](OC(C)=O)C(C)(C)C2C[C@@H](OC(C)=O)[C@]3(C)C(CC[C@@]4(C)[C@H](c5ccoc5)C(=O)[C@H]5O[C@]543)[C@]21C` (stereo not given in full), which Kd is on record?
A: > 4 mM (inactive)

Q: For `CC(=O)N/N=C(\C)c1cccc(N)c1`, which Kd is on record?
A: > 4 mM (inactive)

Q: For `CC1CCC2(OC1)OC1CC3C4CCC5C[C@@H](O)CCC5(C)C4=CCC3(C)C1[C@@H]2C` (stereo not given in full), which Kd is on record?
A: > 4 mM (inactive)

Q: With `Cc1noc(C)c1C(=O)N1CCN(c2ncccn2)CC1` as the compound, how does the Kd read?
A: > 4 mM (inactive)

Q: `Cc1ccc(CCNc2ccccc2)c[n+]1[O-]` was tested. Which Kd did it give?
A: > 4 mM (inactive)

Q: How did the Kd turn out when `CC[C@H]1CN2CCC1C[C@@H]2[C@@H](O)c1ccnc2ccc(OC)cc12` (stereo not given in full) was run?
A: > 4 mM (inactive)

Q: `CC(C)c1ccccc1NC(=O)c1cnccn1` was tested. Which Kd did it give?
A: > 4 mM (inactive)

Q: How did the Kd turn out when `Nc1nnc(COc2cccc(C(F)(F)F)c2)s1` was run?
A: > 4 mM (inactive)

Q: `COc1ccc2c(c1O)-c1c(OC)c(OC)cc3c1[C@H](C2)N(C)CC3` was tested. Which Kd did it give?
A: > 4 mM (inactive)

Q: How did the Kd turn out when `CC(=O)Nc1ccc(NC(=O)c2ccncc2)cc1` was run?
A: > 4 mM (inactive)

Q: `CC(C)(C)NC(=O)N1CCC(C(N)=O)CC1` was tested. Which Kd did it give?
A: > 4 mM (inactive)

Q: Which Kd does the source give for `NCCCCNCCCN` here?
A: > 4 mM (inactive)

Q: Which Kd does the source give for `Cc1ccc(SCc2cc(=O)n3[nH]cnc3n2)cc1` here?
A: > 4 mM (inactive)

Q: With `Cc1cc(NC(=O)c2cccc(S(C)(=O)=O)c2)no1` as the compound, how does the Kd read?
A: > 4 mM (inactive)

Q: Which Kd does the source give for `CNS(=O)(=O)c1ccc2[nH]c(=O)[nH]c2c1` here?
A: > 4 mM (inactive)

Q: `Nc1cccc(NC(=O)c2ccco2)c1` was tested. Which Kd did it give?
A: > 4 mM (inactive)

Q: Which Kd does the source give for `COc1ccc(S(=O)(=O)Nc2ccccn2)c(C)c1C` here?
A: > 4 mM (inactive)

Q: Which Kd does the source give for `COc1ccc(-c2cn[nH]c2N)c(OC)c1` here?
A: > 4 mM (inactive)

Q: With `Cc1noc(C)c1C(=O)Nc1cccnc1` as the compound, how does the Kd read?
A: > 4 mM (inactive)

Q: `COc1cccc(NC(=O)c2cccs2)c1` was tested. Which Kd did it give?
A: > 4 mM (inactive)

Q: With `Nc1nnc(SCc2ccc(F)cc2)s1` as the compound, how does the Kd read?
A: > 4 mM (inactive)

Q: With `O=C1NC2NC(=O)N(c3ccccc3)C2N1` (stereo not given) as the compound, how does the Kd read?
A: > 4 mM (inactive)

Q: `O=C(O)Cn1nc(-c2ccccc2)c2ccccc2c1=O` was tested. Which Kd did it give?
A: > 4 mM (inactive)

Q: How did the Kd turn out when `O=C(CSc1ncn[nH]1)c1ccccc1` was run?
A: > 4 mM (inactive)

Q: Which Kd does the source give for `CCCCCCCCCCCCCc1ccco1` here?
A: > 4 mM (inactive)

Q: Which Kd does the source give for `Cc1ccc(NC(=O)C2CCN(S(C)(=O)=O)CC2)cc1` here?
A: > 4 mM (inactive)

Q: How did the Kd turn out when `CN(C)S(=O)(=O)c1ccc(C(=O)NN)cc1` was run?
A: > 4 mM (inactive)
